According to patent US20120052025A1 (Colgate-Palmolive Company, priority 2009, published 2012):
In brackets after ≈: the same amount, converted by molar mass.

Experiments:
[1] = Stability of formulations with and without antioxidants; type: physicochemical
Text: The stability of three formulations of Compound 1 are compared, the formulations being identical except that one is without any antioxidants, one contains α-tocopherol, and the third contains sodium ascorbylphosphate.

[2] = test system: biofilm; test: Biofilm disruption assay; type: cell-based
Protocol: The solution of 0.5% AN0128.0.75% SLS. 50% Fluraflo L4370 in water is then tested in a biofilm disruption assay.
A solution of 2% Compound 1 in PEG 300 is diluted 1:1 with 2% SLS in water to produce a solution composed of 1% Compound 1, 1% SLS, 50% PEG 300 in water which is then tested in a biofilm disruption assay.
(§1) The properties of Compound 1 in conjunction with other excipients are further evaluated by diluting a solution of Compound 1 in PEG 300 into other solvents such as propylene glycol and glycerin at varying ratios. A solution containing 1% Compound 1 in 19% PEG 300 and 80% propylene glycol is clear. This solution is then diluted 1:1 with 1% SLS in water to produce a solution composed of 0.5% Compound 1, 0.5% SLS, 9.5% PEG 300 and 40% propylene glycol in water which is then tested in the biofilm disruption assay. The percent reduction achieved versus the negative control is 80%. […] Similar results are achieved with PEG and glycerin.

[3] = type: physicochemical
Text: Although some borinic esters are effective as antibacterial agents, incorporating borinic esters into oral care compositions presents difficulties, as borinic esters have proven to be unstable when added to aqueous compositions. For example, borinic esters may hydrolyze and decompose, e.g., in oral care compositions. Additionally, borinic esters may be insoluble in aqueous compositions. […] There remains a need to develop compositions and methods to incorporate borinic acid derivatives stably in oral care compositions.
The poor solubility of Compound A presents some formulation challenges. Its solubility in water is less than 100 ppm, and its solubility in flavor oils (often used to solubilize actives) is less than 0.5%. We have discovered that co-polymers of polyethylene glycol and polypropylene glycol are able to solubilize Compound 1. Fluraflo L4370 (BASF) is able to solubilize 1% Compound 1 (% w/w). It is necessary to stir the solution over low heat to fully solubilize the active. The resulting solution is cloudy, reflecting the nature of the Fluraflo L4370 itself. The solution of 1% Compound 1 in Fluraflo L4370 is diluted 1:1 with 1.5% SLS in water to produce a clear solution, composed of 0.5% AN0128, 0.75% SLS, 50% Fluraflo L4370 in water Similar results are achieved using Fluracare L1220.
We further discovered that low molecular weight polyethylene glycol 300 (PEG 300) (Dow Chemical Company) solubilizes 10% Compound 1 (% w/w). It is necessary to stir the solution over low heat to fully solubilize the active. The resulting solution is clear with a slight yellow tint due to the color of Compound 1. […] Therefore, we conclude that solvents containing oligomers and/or polymers of ethylene glycol are capable of solubilizing Compound 1 and are suitable for formulation.
as §1

[4] = test system: A. viscosus; test: Minimum inhibitory concentration; type: cell-based; settings: Actinomyces viscosus, Gram Positive, ethanol vehicle
Text: (§2) The minimum inhibitory concentration for COMPOUND 1 against common oral bacteria is found to be as follows. Ethanol is used as vehicle.

[5] = test system: A. actinomycetemcomitans; test: Minimum inhibitory concentration; type: cell-based; settings: Aggregatibacter actinomycetemcomitans, Gram Negative, ethanol vehicle
Text: as §2

[6] = test system: S. oralis; test: Minimum inhibitory concentration; type: cell-based; settings: Streptococcus oralis, Gram Positive, ethanol vehicle
Text: as §2

[7] = test system: S. mutans; test: Minimum inhibitory concentration; type: cell-based; settings: Streptococcus mutans, Gram Positive, ethanol vehicle
Text: as §2

[8] = test system: A. naeslundii; test: Minimum inhibitory concentration; type: cell-based; settings: Actinomyces naeslundii, Gram Positive, ethanol vehicle
Text: as §2

[9] = test system: S. sanguinis; test: Minimum inhibitory concentration; type: cell-based; settings: Streptococcus sanguinis, Gram Positive, ethanol vehicle
Text: as §2

[10] = test system: V. parvula; test: Minimum inhibitory concentration; type: cell-based; settings: Veillonella parvula, Gram Negative, ethanol vehicle
Text: as §2

[11] = test system: F. nucleatum; test: Minimum inhibitory concentration; type: cell-based; settings: Fusobacterium nucleatum, Gram Negative, ethanol vehicle
Text: as §2

[12] = test system: S. gordonii; test: Minimum inhibitory concentration; type: cell-based; settings: Streptococcus gordonii, Gram Positive, ethanol vehicle
Text: as §2

[13] = test system: S. sobrinus; test: Minimum inhibitory concentration; type: cell-based; settings: Streptococcus sobrinus, Gram Positive, ethanol vehicle
Text: as §2

[14] = test system: P. intermedia; test: Minimum inhibitory concentration; type: cell-based; settings: Prevotella intermedia, Gram Negative, ethanol vehicle
Text: as §2

[15] = test system: L. casei; test: Minimum inhibitory concentration; type: cell-based; settings: Lacticaseibacillus casei, Gram Positive, ethanol vehicle
Text: as §2

[16] = test system: P. gingivalis; test: Minimum inhibitory concentration; type: cell-based; settings: Porphyromonas gingivalis, Gram Negative, ethanol vehicle
Text: as §2

[17] = Decomposition in buffered vs unbuffered pH 7.2 formulation; type: physicochemical; settings: pH 7.2, phosphate buffer, 14 days
Protocol: Two pH 7.2 formulations of Compound 1 are prepared, one with phosphate buffer, one without, and the decomposition of Compound 1 is measured over 14 days. While measurable decomposition is seen in both formulations, the slope of the rate of decomposition Compound 1 in the buffered formulation is decreased by 3.3 fold compared to that of the unbuffered formulation.

For `Cc1ccc([B-]2(c3ccc(C)c(Cl)c3)OC(=O)c3ncccc3[OH+]2)cc1Cl` [Compound 1], the decomposition in formulation ([1]; formulation containing sodium ascorbylphosphate vs without antioxidants) was “significantly reduced”, the decomposition in formulation ([1]; formulation containing α-tocopherol vs without antioxidants) was “even less” and the “percent reduction versus the negative control” value ([2]; solution of 0.5% AN0128, 0.75% SLS, 50% Fluraflo L4370 in water) was 65%. The “percent reduction versus the negative control” value ([2]; solution of 0.5% Compound 1, 0.5% SLS, 9.5% PEG 300 and 40% propylene glycol in water) was 80%, the “percent reduction versus the negative control” value ([2]; solution of 1% Compound 1, 1% SLS, 50% PEG 300 in water) was 76% and the “amount of Compound 1 solubilized by Fluraflo L4370” value [3] was 1 % w/w. The “amount of Compound 1 solubilized by PEG 300” value [3] was 10 % w/w, the solubility in oils [3] was “less than 0.5%” and the solubility in water [3] was 100 ppm. For the same compound, the “solubilization by PEG 600” value [3] was “can solubilize”, the appearance of solution ([3]; 1% Compound 1 in 19% PEG 300 and 80% propylene glycol) was “clear” and the MIC [4] was 1 µg/mL (≈ 2.5 µM). For the same compound, the MIC [5] was greater than 15.6 µg/mL, the MIC [6] was 0.12 to 0.25 µg/mL (≈ 0.3 to 0.625 µM) and the MIC [7] was 0.25 to 0.5 µg/mL (≈ 0.625 to 1.25 µM). For the same compound, the MIC [8] was 1 to 2 µg/mL (≈ 2.5 to 5 µM), the MIC [9] was 0.25 to 0.5 µg/mL (≈ 0.625 to 1.25 µM) and the MIC [10] was 7.8 µg/mL (≈ 19.5 µM). The MIC [11] was 1 to 2 µg/mL (≈ 2.5 to 5 µM), the MIC [12] was 0.12 to 0.25 µg/mL (≈ 0.3 to 0.625 µM) and the MIC [13] was 0.12 to 0.5 µg/mL (≈ 0.3 to 1.25 µM). For the same compound, the MIC [14] was 3.9 to 7.8 µg/mL (≈ 9.75 to 19.5 µM), the MIC [15] was 2 to 3.9 µg/mL (≈ 5 to 9.75 µM) and the MIC [16] was no more than 0.12 µg/mL. The “decrease of the slope of the rate of decomposition, buffered vs unbuffered formulation” value [17] was 3.3 fold.
